Seven compounds from patent US12325696B2, “Indazole derivative, preparation method therefor, and pharmaceutical application thereof” (JIANGSU HENGRUI MEDICINE CO., LTD., priority 2019, dated 2025) can be followed below.

Assay [1] deals with estrogen receptor reporter gene. Description: Inhibition of estrogen receptor reporter gene activity (ERE-luc luciferase) in MCF7/ERE-luc cells. Format: cell-based. As to conditions: Homo sapiens, 0.1 nM β-estradiol, 20 hours, read-out: IC50 of inhibitory activity on the activity of the estrogen receptor reporter gene. In a few lines:
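MCF7 cells stably carrying ERE-driven luciferase, in charcoal-stripped serum medium, were stimulated with 0.1 nM β-estradiol plus compound (nine 10-fold dilutions from 10 μM) for 20 h at 37° C. ONE-Glo luminescence was read, and IC50 was fitted from signal versus log concentration.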

Another assay concerns MCF7 ERαY537S. The assay is described as follows: Inhibition of proliferation of MCF7 cell expressing ERα Y537S mutant. The format is cell-based. Particulars: Homo sapiens, 144 hours; for Emax: read-out: Maximum inhibition. The gist of the method:
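MCF7 cells stably expressing lentiviral ERα Y537S or D538G mutants, seeded 3,000 cells/well, then exposed in 2% FBS MEM to nine 4-fold dilutions from 100 nM for 144 h at 37° C. Viability read by CellTiter-Glo luminescence; IC50 fitted from concentration-response.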

For assay [2], the target named is estrogen receptor ERα Y537S mutant-type (Homo sapiens (Human), UniProt P03372, Y537S). The assay is described as follows: Covalent modification of ERα Y537S mutant-type LBD by high-resolution mass spectrometry. Format: binding. Particulars: after 24 hours; 2 μM protein, 10 μM compound, 4° C. The procedure: The ligand binding domain (LBD, aa296-554) of estrogen receptor ERα wild-type and ERα Y537S mutant-type was expressed in E. coli and purified. 2 μM ERα wild-type or ERα Y537S mutant-type protein and 10 μM compound were added to a buffer solution containing 50 mM Tris-HCl, pH7.5, 150 mM NaCl, 1 mM TCEP and 5% glycerol and mixed well. The solution was incubated at 4° C. for 24 hours, followed by high-resolution mass spectrometry (Agilent Technologies, Agilent Q-tof 6530) assay. Alternatively, 1 μM ERα wild-type or ERα Y537S mutant-type protein and 3 μM compound were added to a buffer solution containing 50 mM Tris-HCl, pH7.5, 150 mM NaCl, 1 mM TCEP and 5% glycerol and mixed well. The solution was incubated at 37° C. for 15 minutes, followed by high-resolution mass spectrometry assay. In the mass spectrometry assay results, the peak whose molecular weight is the sum of the molecular weight of the protein and compound is the product of covalent modification. The percentage of covalent modification is obtained by calculating the ratio of […] to total protein.
estrogen receptor ERα Y537S mutant-type, sequence (P03372 296-554 Y537S): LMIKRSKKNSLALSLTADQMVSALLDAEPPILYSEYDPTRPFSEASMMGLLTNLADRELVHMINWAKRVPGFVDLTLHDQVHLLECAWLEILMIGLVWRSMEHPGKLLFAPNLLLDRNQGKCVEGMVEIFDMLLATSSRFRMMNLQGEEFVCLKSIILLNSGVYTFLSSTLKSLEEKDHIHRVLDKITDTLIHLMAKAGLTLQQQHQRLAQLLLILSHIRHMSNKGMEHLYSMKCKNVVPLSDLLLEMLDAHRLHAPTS

For `O=C(/C=C/CNC1(COc2ccc(/C(=C(/CC(F)(F)F)c3ccccc3)c3ccc4[nH]nc(F)c4c3)cn2)CC1)N1CCOCC1` [Example 1, (E)-1-Morpholino-4-((1-(((5-((Z)-4,4,4-trifluoro-1-(3-fluoro-1H-indazol-5-yl)-2-phenylbut-1-en-1-yl)pyridin-2-yl)oxy)methyl)cyclopropyl)amino)but-2-en-1-one], the IC50 in assay [1] worked out at 1 nM; with MCF7 ERαY537S, 3 nM. Also, the Emax in the assay with MCF7 ERαY537S was found to be 100%. Besides, in assay [2], the “Covalent modification effect on the estrogen receptor ERα Y537S mutant-type” value (from here on “Covalent modification effect”) is on record as 97%.

Regarding `CN(C)C(=O)/C=C/CN1CCC[C@@H](Oc2ccc(/C(=C(/CC(F)(F)F)c3ccccc3)c3ccc4[nH]nc(F)c4c3)cn2)C1` [Example 14, (E)-N,N-Dimethyl-4-((R)-3-((5-((Z)-4,4,4-trifluoro-1-(3-fluoro-1H-indazol-5-yl)-2-phenylbut-1-en-1-yl)pyridin-2-yl)oxy)piperidin-1-yl)but-2-enamide], the IC50 in assay [1] was 2 nM. Moreover, in the assay on MCF7 ERαY537S, the IC50 was 6 nM and the Emax came out at 97%. Besides, the “Covalent modification effect” value in assay [2] is reported as 94%.

For the compound `O=C(/C=C/CN1CCC[C@@H](Oc2ccc(/C(=C(/CC(F)(F)F)c3ccccc3)c3ccc4[nH]nc(F)c4c3)cn2)C1)N1CCCC1` [Example 15, (E)-1-(Pyrrolidin-1-yl)-4-((R)-3-((5-((Z)-4,4,4-trifluoro-1-(3-fluoro-1H-indazol-5-yl)-2-phenylbut-1-en-1-yl)pyridin-2-yl)oxy)piperidin-1-yl)but-2-en-1-one], the IC50 in assay [1] stood at 3 nM; in the assay on MCF7 ERαY537S, 2 nM. In the assay on MCF7 ERαY537S, the Emax is 102%. For the same compound, the “Covalent modification effect” value in assay [2] turned out to be 96%.

Consider `CN(C)C(=O)/C=C/CNC1(COc2ccc(/C(=C(/CC(F)(F)F)c3ccccc3)c3ccc4[nH]nc(F)c4c3)cn2)CC1` [Example 39, (E)-N,N-Dimethyl-4-((1-(((5-((Z)-4,4,4-trifluoro-1-(3-fluoro-1H-indazol-5-yl)-2-phenylbut-1-en-1-yl)pyridin-2-yl)oxy)methyl)cyclopropyl)amino)but-2-enamide], for which the IC50 in assay [1] amounted to 2 nM; in the assay on MCF7 ERαY537S, 1 nM. Besides, the Emax in the assay with MCF7 ERαY537S was found to be 112%. Also, the “Covalent modification effect” value in assay [2] is 98%.

Regarding `O=C(/C=C/CNC1(COc2ccc(/C(=C(/CC(F)(F)F)c3ccccc3)c3ccc4[nH]nc(F)c4c3)cn2)CC1)N1CC(O)C1` [Example 40, (E)-1-(3-Hydroxyazetidin-1-yl)-4-((1-(((5-((Z)-4,4,4-trifluoro-1-(3-fluoro-1H-indazol-5-yl)-2-phenylbut-1-en-1-yl)pyridin-2-yl)oxy)methyl)cyclopropyl)amino)but-2-en-1-one], the IC50 in assay [1] turned out to be 2 nM. In addition, in the assay on MCF7 ERαY537S, the midpoint of inhibition, the IC50, lay at 0.5 nM and the Emax worked out at 112%. In addition, the “Covalent modification effect” value in assay [2] stood at 98%.

In the case of `O=C(/C=C/CNC1(COc2ccc(/C(=C(/CC(F)(F)F)c3ccccc3)c3ccc4[nH]nc(F)c4c3)cn2)CC1)N1CC[C@H](O)C1` [Example 41, (E)-1-((S)-3-Hydroxypyrrolidin-1-yl)-4-((1-(((5-((Z)-4,4,4-trifluoro-1-(3-fluoro-1H-indazol-5-yl)-2-phenylbut-1-en-1-yl)pyridin-2-yl)oxy)methyl)cyclopropyl)amino)but-2-en-1-one], the IC50 in assay [1] is 3 nM; in the assay on MCF7 ERαY537S it was 0.6 nM. Further, the Emax in the assay with MCF7 ERαY537S amounted to 111%. Also, the “Covalent modification effect” value in assay [2] is 95%.

Regarding `O=C(/C=C/CNC1(COc2ccc(/C(=C(/CC(F)(F)F)c3ccccc3)c3ccc4[nH]nc(F)c4c3)cn2)CC1)N1CCO[C@@H](CO)C1` [Example 42, (E)-1-((R)-2-(Hydroxymethyl)morpholino)-4-((1-(((5-((Z)-4,4,4-trifluoro-1-(3-fluoro-1H-indazol-5-yl)-2-phenylbut-1-en-1-yl)pyridin-2-yl)oxy)methyl)cyclopropyl)amino)but-2-en-1-one], the IC50 came to 0.7 nM in assay [1] and 0.2 nM in the assay with MCF7 ERαY537S. In the assay with MCF7 ERαY537S, the Emax came to 107%. Also, in assay [2], the “Covalent modification effect” value was 97%.
